Source: patent publication US11219623B2, “Inflammasome inhibition for the treatment of Parkinson's disease, Alzheimer's disease and multiple sclerosis” (University of Kentucky Research Foundation, priority 2015, dated 2022)
Entries after “also recorded” stand apart in the source; their conditions may differ.

Columns and labels:
IRAK4 [1] = assay: Alu RNA-induced IRAK4 phosphorylation, primary mouse RPE cells; assay type: cell-based
primary human RPE cells = assay: ATP release induced by Alu RNA, ATP-dependent luciferase assay, primary human RPE cells; assay type: cell-based; settings: cell culture supernatant
Source text: Alu RNA (Kerur et al., 2013) and LPS/ATP (Qu et al., 2011) activate the inflammasome via the ATP receptor P2X7.
(FIG. 16) Primary human RPE cells treated with Alu RNA for the times indicated release ATP. […] ATP was detected using an ATP-dependent luciferase assay.

human P2X7 receptor = target: T1, human P2X7 receptor (Homo sapiens, UniProt Q99572); settings: 64 μM drug; bzATP 100 μM; n=12
T1 sequence (Q99572 1-595): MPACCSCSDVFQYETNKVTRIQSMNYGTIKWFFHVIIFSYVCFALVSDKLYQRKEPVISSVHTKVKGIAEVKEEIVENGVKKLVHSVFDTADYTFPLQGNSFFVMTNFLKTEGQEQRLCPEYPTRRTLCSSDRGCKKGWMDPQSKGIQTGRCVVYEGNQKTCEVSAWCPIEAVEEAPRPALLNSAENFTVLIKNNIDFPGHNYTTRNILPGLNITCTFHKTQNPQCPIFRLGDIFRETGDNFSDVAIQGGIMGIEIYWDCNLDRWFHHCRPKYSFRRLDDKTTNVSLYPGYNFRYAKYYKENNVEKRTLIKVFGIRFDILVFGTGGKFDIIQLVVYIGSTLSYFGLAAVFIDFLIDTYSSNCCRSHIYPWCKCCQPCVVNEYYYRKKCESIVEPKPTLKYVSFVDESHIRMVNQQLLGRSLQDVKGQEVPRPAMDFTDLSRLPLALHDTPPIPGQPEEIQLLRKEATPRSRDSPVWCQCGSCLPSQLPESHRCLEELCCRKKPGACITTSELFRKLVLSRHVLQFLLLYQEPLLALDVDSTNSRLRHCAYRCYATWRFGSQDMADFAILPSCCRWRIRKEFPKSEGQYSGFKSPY

Caspase-1 [2] = assay: Alu RNA-induced Caspase-1 activation, western blot, primary human RPE cells; assay type: cell-based
Source text: The bottom row in FIG. 5 is a vinculin loading control.

Alu RNA = Alu RNA levels, Northern blotting, primary human RPE cells; assay type: cell-based
Source text: As presented in FIG. 3, primary human RPE cells treated with antisense oligonucleotides targeting DICER1 (Dcr as) (lane 3 (third lane from left)) show increased Alu RNA levels in the nuclear compartment compared to control antisense oligonucleotides (Ctr as) (lane 1 (leftmost)), monitored by Northern blotting using an Alu-specific probe.
For example, primary human RPE cells may be transfected with Alu RNA, with or without d4T. […] U6 (bottom row) is shown as loading control for nuclear fraction in FIG. 4.
And FIG. 45 presents a Northern blot of biotin-UTP-labeled Alu RNA-transfected primary human RPE cells.

IL-18 = assay: LPS/ATP-induced IL-18 maturation, mouse bone marrow-derived macrophages; assay type: cell-based; settings: 100 uM; cell culture supernatants
[3] = NLRP3- and P2X7-driven model of sterile liver inflammation; settings: in vivo
Source text: (§1) To explore the potential therapeutic relevance of NRTIs beyond the Alu-induced model of geographic atrophy (GA), it was hypothesized that if NRTIs function as generic inflammasome inhibitors, then they might be broadly useful in other animal models of disease that are also driven by P2X7.

[4] = tested on: mitochondrial reactive oxygen species (mtROS); assay: Mitochondrial ROS caused by Alu expression, MitoSox assay, primary human RPE cells; assay type: cell-based
Procedure: After 15 hours cells were co-stained for mtROS (red) and for cell count, nuclei (blue; Hoechst DNA stain).
In FIG. 54, mitochondrial reactive oxygen species (ROS) were visualized with MitoSox (Red) and cell nuclei with Hoechst (Blue).

mice [5] = assay: Graft-versus-host disease model, mice receiving allogeneic bone marrow and T cells; assay type: in vivo, mouse; settings: vs. 0% in saline treated controls
Source text: as §1

[6] = LogP, partition coefficient in 1-octanol; assay type: physicochemical; settings: 1-octanol partition
IRAK4 [7] = assay: Alu RNA-induced IRAK4 phosphorylation, primary human RPE cells
IL-1 beta = assay: MSU-induced IL-1 beta secretion from PMA-differentiated THP-1 monocytes, ELISA; assay type: cell-based, human; settings: 25-1000 uM
Source text: Human THP-1 monocytes were differentiated into macrophages with PMA.
To illustrate this, human THP-1 monocytes were differentiated into macrophages with PMA. Treatment with MSU increased IL-1 beta secretion compared to non-treated cells. […]

rat P2X7 receptor = target: T2, rat P2X7 receptor (Rattus norvegicus, UniProt Q64663); assay: P2X7 cation channel function, patch clamp, HEK293 cells expressing rat P2X7; assay type: cell-based; settings: rat P2X7 in HEK293
T2 construct: expressed in transfected cells; host or cells: HEK293 cells

Caspase-1 [8] = assay: LPS/ATP-induced Casp-1 activation, primary human RPE cells; assay type: cell-based; settings: 25/100 uM
Source text: (§2) The loading control in FIG. 8 is vinculin. Furthermore, as shown, LPS and ATP activate the NLRP3 inflammasome only in combination, thus treatment with one or the other alone is useful as a control for this experiment.

IRAK4 [9] = assay: LPS/ATP-induced IRAK4 phosphorylation, primary human RPE cells; assay type: cell-based; settings: 25/100 uM
Source text: as §2

mice [10] = assay: Iron-induced RPE degeneration in mice; assay type: in vivo, mouse; settings: intraperitoneal 25 mg/kg days 1 to 6; read day 7
Caspase-1 [11] = assay: Alu RNA-induced Caspase-1 activation, primary mouse RPE cells; assay type: cell-based
mtDNA = mtDNA levels, real-time quantitative PCR, primary mouse RPE cells; assay type: cell-based; settings: normalized to chromosomal DNA, n=4
Source text: The present disclosure further provides the results of additional experiments in FIG. 21-FIG. 23.

NLRP3 mRNA = assay: NLRP3 priming (mRNA) induced by Alu RNA, primary human RPE cells; assay type: cell-based; settings: 100 uM; 16 hours; normalized to 18S RNA
Procedure: Indeed, as provided in the bar graph of FIG. 13, Alu RNA transfection increases NLRP3 mRNA levels in primary human RPE cells at 16 hours, an event termed “priming” (Y-axis) compared to mock (transfection reagent alone).

IL-1 beta mRNA = assay: IL-1beta priming (mRNA) induced by Alu RNA, primary human RPE cells; assay type: cell-based; settings: 100 uM; 24 hours; normalized to 18S RNA
Procedure: FIG. 14 illustrates that Alu RNA transfection increases IL-1 beta mRNA levels in primary human RPE cells at 24 hours, an event termed “priming”, (Y-axis) compared to mock (transfection reagent alone).

T2 sequence (Q64663 whole entry): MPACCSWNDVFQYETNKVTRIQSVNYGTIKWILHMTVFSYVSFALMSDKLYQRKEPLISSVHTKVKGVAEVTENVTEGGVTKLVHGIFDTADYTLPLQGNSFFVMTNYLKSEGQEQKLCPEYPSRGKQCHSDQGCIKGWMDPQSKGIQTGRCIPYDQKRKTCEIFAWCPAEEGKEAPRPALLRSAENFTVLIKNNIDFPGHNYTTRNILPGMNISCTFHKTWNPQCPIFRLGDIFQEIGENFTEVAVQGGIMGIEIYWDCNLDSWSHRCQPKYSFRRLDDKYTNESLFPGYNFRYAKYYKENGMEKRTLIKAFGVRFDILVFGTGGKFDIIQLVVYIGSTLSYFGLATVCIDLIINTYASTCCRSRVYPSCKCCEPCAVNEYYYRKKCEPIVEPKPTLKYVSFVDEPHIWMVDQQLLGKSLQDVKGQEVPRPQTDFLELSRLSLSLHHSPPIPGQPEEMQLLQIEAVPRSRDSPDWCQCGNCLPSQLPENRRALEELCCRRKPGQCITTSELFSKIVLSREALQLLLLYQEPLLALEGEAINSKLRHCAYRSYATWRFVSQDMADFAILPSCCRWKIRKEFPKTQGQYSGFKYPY

SMILES: Cc1cn([C@H]2C=C[C@@H](CO)O2)c(=O)[nH]c1=O [d4T, 2′3′ dideoxythymidine]
- IRAK4 phosphorylation induced by Alu RNA (IRAK4 [1]): blocks phosphorylation of IRAK4
- ATP release induced by Alu RNA (primary human RPE cells): does not block release of ATP; also recorded: did not affect ATP release
- P2X7-mediated YO-PRO-1 dye uptake induced by bzATP (human P2X7 receptor): inhibited
- Alu RNA-induced Caspase-1 maturation (Caspase-1 [2]; 100 uM, 24 hours after Alu administration): blocked
- Alu RNA-induced Caspase-1 activation/cleavage (Caspase-1 [2]; concentration not given): prevents Caspase 1 cleavage
- Alu RNA levels, nuclear compartment (Alu RNA; cells treated with antisense oligonucleotides targeting DICER1): does not reduce Alu RNA levels
- Alu RNA levels after Alu RNA transfection (Alu RNA; nuclear fraction 1, 4, or 24 hours (FIG. 4), biotin-UTP-labeled Alu RNA (FIG. 45)): does not change Alu RNA levels; also recorded: did not reduce Alu RNA levels
- IL-18 maturation induced by LPS/ATP (IL-18): inhibit
- neutrophil migration to the focus of liver injury [3]: reduced neutrophil migration
- mitochondrial ROS caused by Alu expression (pAluA) [4]: reduces mitochondrial ROS; also recorded: prevents pAlu-induced mitochondrial ROS generation
- survival (mice [5]): 30-70%
- logP [6]: -0.23
- IRAK4 phosphorylation induced by Alu RNA (IRAK4 [7]): blocks phosphorylation of IRAK4
- IL-1beta secretion induced by MSU (IL-1 beta): did not significantly affect IL-1beta secretion
- P2X7 cation channel function (rat P2X7 receptor): did not significantly modulate P2X7 cation channel function
- Casp-1 activation induced by LPS/ATP (Caspase-1 [8]): blocks Casp-1 activation
- IRAK4 phosphorylation induced by LPS/ATP (IRAK4 [9]): blocks
- Iron-induced RPE degeneration (mice [10]): blocked the development of RPE degeneration
- Caspase 1 cleavage to active 20 kDa form induced by Alu RNA (Caspase-1 [11]): prevents Caspase 1 cleavage
- mtDNA levels (mtDNA): reduces mtDNA levels
- NLRP3 mRNA levels (priming) induced by Alu RNA (NLRP3 mRNA): reduces NLRP3 priming
- IL-1 beta mRNA levels (priming) induced by Alu RNA (IL-1 beta mRNA): reduces IL-1beta priming
